One may read the Ki as a measure of affinity in units of concentration, obtained from inhibition or displacement.

We go through 7 molecules from ChEMBL document CHEMBL3351783, “Structural insights into carbonic anhydrase IX isoform specificity of carbohydrate-based sulfamates” (J Med Chem, 2014).

In experiment [1] the target is Carbonic anhydrase 9 (Homo sapiens, UniProt Q16790). Put plainly: Inhibition of human recombinant carbonic anhydrase 9 by stopped-flow CO2 hydration assay.
In experiment [2] the target is Carbonic anhydrase 1 (Homo sapiens, UniProt P00915). Description: Inhibition of human recombinant carbonic anhydrase 1 by stopped-flow CO2 hydration assay.
Chain of Carbonic anhydrase 1 (P00915 whole entry): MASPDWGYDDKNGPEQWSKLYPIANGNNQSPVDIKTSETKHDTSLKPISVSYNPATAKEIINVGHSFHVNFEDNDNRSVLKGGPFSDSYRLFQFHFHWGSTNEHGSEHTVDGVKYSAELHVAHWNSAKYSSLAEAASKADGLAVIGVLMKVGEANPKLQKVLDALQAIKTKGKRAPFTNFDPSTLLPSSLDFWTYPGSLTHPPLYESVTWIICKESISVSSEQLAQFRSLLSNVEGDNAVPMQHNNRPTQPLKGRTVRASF

Consider `CC(=O)OC[C@H]1O[C@@H](S(=O)(=O)NCCCOS(N)(=O)=O)[C@H](OC(C)=O)[C@@H](OC(C)=O)[C@@H]1OC(C)=O`, for which, in experiment [1], the Ki was determined as 215 nM.
Still for that read-out and setting: to `CC(=O)OC[C@H]1O[C@@H](S(=O)(=O)N2CC[C@@H](OS(N)(=O)=O)C2)[C@H](OC(C)=O)[C@@H](OC(C)=O)[C@@H]1OC(C)=O` belongs 2 nM; to `COC(=O)[C@@H]1C[C@@H](OS(N)(=O)=O)CN1S(=O)(=O)[C@@H]1O[C@H](COC(C)=O)[C@@H](OC(C)=O)[C@H](OC(C)=O)[C@H]1OC(C)=O`, 2 nM.
Take `COC(=O)[C@H](CS(N)(=O)=O)NS(=O)(=O)[C@@H]1O[C@H](COC(C)=O)[C@@H](OC(C)=O)[C@H](OC(C)=O)[C@H]1OC(C)=O`: in experiment [2], the Ki was above 20000 nM.
As for `NS(=O)(=O)OCCCNS(=O)(=O)[C@@H]1O[C@H](CO)[C@@H](O)[C@H](O)[C@H]1O`, the Ki in experiment [1] turned out to be 2 nM.
Take `NS(=O)(=O)OC1CCN(S(=O)(=O)[C@@H]2O[C@H](CO)[C@@H](O)[C@H](O)[C@H]2O)CC1`: in experiment [2], the Ki is above 20000 nM.
As to `NS(=O)(=O)O[C@@H]1CCN(S(=O)(=O)[C@@H]2O[C@H](CO)[C@@H](O)[C@H](O)[C@H]2O)C1`, in experiment [1], the Ki is 2 nM.
